Key:
[1] = target: T1, Glycylpeptide N-tetradecanoyltransferase 1 (Homo sapiens, UniProt P30419); assay: Inhibition of human NMT expressed in Escherichia coli DH5alpha cells
T1 sequence (P30419 whole entry): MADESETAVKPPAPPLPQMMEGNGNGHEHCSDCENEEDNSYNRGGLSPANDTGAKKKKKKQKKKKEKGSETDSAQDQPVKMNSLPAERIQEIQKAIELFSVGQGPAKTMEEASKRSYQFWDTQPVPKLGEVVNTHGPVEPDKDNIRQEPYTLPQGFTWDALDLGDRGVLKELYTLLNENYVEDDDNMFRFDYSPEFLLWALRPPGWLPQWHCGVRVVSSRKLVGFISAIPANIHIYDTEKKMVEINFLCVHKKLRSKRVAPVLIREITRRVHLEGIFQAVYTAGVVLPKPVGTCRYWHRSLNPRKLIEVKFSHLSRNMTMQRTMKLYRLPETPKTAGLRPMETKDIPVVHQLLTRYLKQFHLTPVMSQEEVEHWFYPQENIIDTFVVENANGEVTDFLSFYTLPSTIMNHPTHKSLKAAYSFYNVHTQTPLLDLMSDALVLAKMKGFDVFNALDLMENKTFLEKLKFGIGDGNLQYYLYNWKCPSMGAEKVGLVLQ

CCRF-CEM = assay: Cytotoxicity against human CEM cells; assay type: functional, cell-based
L1210 = assay: Cytotoxicity against mouse L1210 cells; assay type: functional, cell-based
[2] = Cytotoxicity against human Molt4/C8 cells; assay type: functional, cell-based; conditions: MOLT-4
Mus musculus [3] = assay: Toxicity in mouse assessed as mortality at 30 to 300 mg/kg, ip after 0.5 to 4 hrs; assay type: organism-based; parameters: dose 30-300 mg/kg, route intraperitoneal; conditions: in vivo
Mus musculus [4] = assay: Toxicity in mouse assessed as mortality at 100 mg/kg, ip after 4 hrs; assay type: organism-based; parameters: dose 100 mg/kg, route intraperitoneal; conditions: in vivo
Mus musculus [5] = assay: Toxicity in mouse assessed as mortality at 300 mg/kg, ip after 4 hrs; assay type: organism-based; parameters: dose 300 mg/kg, route intraperitoneal; conditions: in vivo
Mus musculus [6] = assay: Toxicity in mouse assessed as mortality at 30 mg/kg, ip after 4 hrs; assay type: organism-based; parameters: dose 30 mg/kg, route intraperitoneal; conditions: in vivo

SMILES	IC50 [1] [µM]	IC50 (CCRF-CEM) [µM]	IC50 (L1210) [µM]	IC50 [2] [µM]	Activity (Mus musculus [3])	Activity (Mus musculus [4])	Activity (Mus musculus [5])	Activity (Mus musculus [6])
COC(=O)/C=C\C(=O)Nc1ccc(C)cc1	> 10000	36	47	37	–	–	–	–
COC(=O)/C=C\C(=O)Nc1ccc(C)c(C)c1	–	228	202	188	–	–	–	–
O=C(O)/C=C/C(=O)Nc1ccc(Cl)c(Cl)c1	–	209	314	214	Non-toxic	–	–	–
O=C1C=C/C(=N\c2ccc(Cl)cc2)O1	–	182	59	30	–	–	–	–
COC(=O)CCC(=O)Nc1ccccc1	–	> 500	> 500	> 500	–	–	–	–
O=C1CCC(=O)N1c1ccc([N+](=O)[O-])cc1	–	202	41	210	–	Toxic	Toxic	–
COC(=O)/C=C\C(=O)Nc1ccccc1	–	> 500	> 500	> 500	–	–	–	–
COC(=O)/C=C\C(=O)Nc1ccc(Cl)c(Cl)c1	–	55	39	41	–	–	Toxic	–
O=C1CCC(=O)N1c1ccc(Cl)cc1	–	231	194	218	–	Toxic	Toxic	–
Cc1ccc(N2C(=O)CCC2=O)cc1	–	42	7.8	43	–	Toxic	Toxic	–
COc1ccc(N2C(=O)CCC2=O)cc1	–	295	225	281	–	Toxic	Toxic	–
CC(=O)c1ccc(N2C(=O)CCC2=O)cc1	–	215	31	93	–	Toxic	Toxic	–
O=C1C=C/C(=N\c2ccccc2)O1	–	> 500	> 500	> 500	–	–	–	–
O=C1C=C/C(=N\c2ccc(Cl)c(Cl)c2)O1	–	54	47	58	–	–	Toxic	–
Cc1ccc(/N=C2\C=CC(=O)O2)cc1	–	357	271	301	–	–	–	–
Cc1ccc(/N=C2\C=CC(=O)O2)cc1C	–	195	69	161	–	–	–	–
COc1ccc(/N=C2\C=CC(=O)O2)cc1	–	> 500	> 500	> 500	–	–	–	–
O=C1C=C/C(=N\c2ccc([N+](=O)[O-])cc2)O1	–	161	69	60	–	–	Toxic	–
CC(=O)c1ccc(/N=C2\C=CC(=O)O2)cc1	–	205	219	214	–	–	–	–
COC(=O)/C=C\C(=O)Nc1ccc(Cl)cc1	–	95	78	41	Non-toxic	–	–	–
Cc1ccc(NC(=O)/C=C/C(=O)O)cc1	–	> 500	> 500	> 500	Non-toxic	–	–	–
Cc1ccc(NC(=O)/C=C/C(=O)O)cc1C	–	> 500	466	> 500	Non-toxic	–	–	–

SMILES	IC50 [1] [µM]	IC50 (CCRF-CEM) [µM]	IC50 (L1210) [µM]	IC50 [2] [µM]	Activity (Mus musculus [3])	Activity (Mus musculus [4])	Activity (Mus musculus [5])	Activity (Mus musculus [6])
COc1ccc(NC(=O)/C=C/C(=O)O)cc1	–	> 500	> 500	> 500	Non-toxic	–	–	–
O=C(O)/C=C/C(=O)Nc1ccc([N+](=O)[O-])cc1	–	> 500	> 500	236	Non-toxic	–	–	–
CC(=O)c1ccc(NC(=O)/C=C/C(=O)O)cc1	–	> 500	> 500	> 500	Non-toxic	–	–	–
Cc1cccc(C)c1NC(=O)/C=C/C(=O)O	–	> 500	> 500	> 500	Non-toxic	–	–	–
COC(=O)/C=C/C(=O)Nc1ccccc1	–	40	40	42	Non-toxic	–	–	–
COC(=O)/C=C/C(=O)Nc1c(C)cccc1C	–	31	34	26	Non-toxic	–	–	–
COC(=O)/C=C/C(=O)Nc1ccc(Cl)cc1	–	9.6	7.5	8.2	Non-toxic	–	–	–
COC(=O)/C=C/C(=O)Nc1ccc(Cl)c(Cl)c1	–	4.8	0.37	2.4	Non-toxic	–	–	–
COC(=O)/C=C/C(=O)Nc1ccc(C)cc1	–	15	9.3	21	–	Toxic	–	–
COC(=O)/C=C/C(=O)Nc1ccc(C)c(C)c1	2330	7.6	2.2	4.6	Non-toxic	–	–	–
COC(=O)/C=C/C(=O)Nc1ccc(OC)cc1	–	37	18	10	Non-toxic	–	–	–
COC(=O)/C=C/C(=O)Nc1ccc([N+](=O)[O-])cc1	–	11	6.2	7.3	Non-toxic	–	–	–
COC(=O)/C=C/C(=O)Nc1ccc(C(C)=O)cc1	–	32	17	35	–	–	–	–
O=C(O)/C=C/C(=O)Nc1ccc(Cl)cc1	–	> 500	> 500	> 500	Non-toxic	–	–	–
COC(=O)/C=C\C(=O)Nc1ccc([N+](=O)[O-])cc1	–	190	208	210	–	–	Toxic	–
COC(=O)/C=C\C(=O)Nc1ccc(C(C)=O)cc1	–	44	184	50	–	–	Toxic	–
COC(=O)/C=C\C(=O)Nc1c(C)cccc1C	–	183	184	192	–	–	–	–
O=C(O)CCC(=O)Nc1ccccc1	–	> 500	> 500	> 500	–	–	–	–
O=C(O)/C=C/C(=O)Nc1ccccc1	–	> 500	> 500	> 500	Non-toxic	–	–	–
O=C1CCC(=O)N1c1ccccc1	–	> 500	> 500	> 500	Non-toxic	–	–	–
O=C1C=CC(=O)N1c1ccccc1	–	217	164	207	–	Toxic	Toxic	Toxic
N[C@@H](Cc1ccc(N(CCCl)CCCl)cc1)C(=O)O [MELPHALAN]	–	2.5	2.1	3.2	–	–	–	–
